Laboratory results reported in ChEMBL document CHEMBL3808304, “Design, Synthesis, and Biological Evaluation of Indoline and Indole Derivatives as Potent and Selective α1A-Adrenoceptor Antagonists” (J Med Chem, 2016).

What was measured:
Assay type in all cases: ADME, organism-based
[1] = AUC (0 to infinity) in rat at 20 mg/kg, po; parameters: dose 20 mg/kg, route oral, time infinity; conditions: in vivo
[2] = Cmax in rat at 20 mg/kg, po; parameters: dose 20 mg/kg, route oral; conditions: in vivo
[3] = Tmax in rat at 20 mg/kg, po; conditions: in vivo
[4] = Half life in rat at 20 mg/kg, po; conditions: in vivo
[5] = Cmax in rat at 10 mg/kg, iv; parameters: dose 10 mg/kg, route intravenous; conditions: in vivo
[6] = MRT in rat at 10 mg/kg, iv; conditions: in vivo
[7] = Half life in rat at 10 mg/kg, iv; conditions: in vivo
[8] = Apparent clearance in rat at 10 mg/kg, iv; conditions: in vivo, read-out: CL(app) (converted)
[9] = Oral bioavailability in rat at 20 mg/kg; conditions: in vivo
[10] = MRT in rat at 20 mg/kg, po; conditions: in vivo
[11] = AUC (0 to infinity) in rat at 10 mg/kg, iv; parameters: dose 10 mg/kg, time infinity, route intravenous; conditions: in vivo
[12] = Tmax in rat at 10 mg/kg, iv; conditions: in vivo

Row | Compound | AUC(0-inf) [1] | Cmax [2] | Tmax [3] | half-life [4] | Cmax [5] | MRT [6] | half-life [7] | clearance [8] | bioavailability [9] | MRT [10] | AUC(0-inf) [11] | Tmax [12]
1 | Cc1ccc(OCC(F)(F)F)c(OCCN[C@H](C)Cc2cc(C(N)=O)c3c(ccn3CCCO)c2)c1 | 613 ng·h/mL | 109 ng/mL | 0.5 h | 73.2 min | 2430 ng/mL | 2.94 h | 66 min | 37.9 mL/min/kg | 7% | 3.54 h | 4400 ng·h/mL | 4.98 min
2 | C[C@H](Cc1cc2c(c(C(N)=O)c1)N(CCCO)CC2)NCCOc1cc(Cl)ccc1OCC(F)(F)F | 1700 ng·h/mL | 152 ng/mL | 4 h | 280 min | 3000 ng/mL | 2.34 h | 97.8 min | 47.5 mL/min/kg | 24.3% | 6.22 h | 3510 ng·h/mL | 4.98 min
